Results on 5 compounds are retold here after patent US7498404B2, “Compositions, methods and uses for a novel family of peptides” (priority 2004, dated 2009).

One may read the Km as the concentration of substrate that gives half-maximal velocity.

For assay [1], the target named is Module 8 A-domain protein (Brevibacillus texasporus, UniProt Q2VQ14). Description: ATP-PPi exchange assay, Module 8 A-domain. Format: biochemical. The following applies: 0.5 mM amino acid, 2 μM protein, 37° C., 15 min. The procedure:
(§1) Cloning, overexpression, and purification of His10-tagged BT A-domain proteins. DNA fragments encoding the A-domains of the BT NRPS Modules 8, 5, 7, 4 and 2 (Bt8A, Bt5A, Bt7A, Bt4A and Bt2A) were PCR-amplified and the PCR products were inserted into the His10-tag recombinant protein expression vector pET16b (Novagen). The A-domain borders were determined as defined by (Konz, et al., 1999). The expression constructs were transformed into the E.coli BL21 -AI strain (Invitrogen). Transformants were grown in L-broth at 37° C. to an A600 of 0.6 and then induced with 1 mM IPTG (isopropyl-β-D-thiogalactopyranoside) plus 0.2% L-arabinose. The cells were allowed to grow for two additional hours at 30° C. before being harvested. Purification of the His10-tag recombinant proteins was achieved using the TALON metal affinity resins (BD Biosciences) under conditions recommended in the manual with modifications. Briefly, the E. coli cells were broken by sonication. Cell lysates were cleared by centrifugation at 25,000× g for one hour. […] Eluted proteins were dialyzed against a buffer (50 mM HEPES, pH 8.0, 100 mM sodium chloride, 10 mM magnesium chloride, and 1 mM EDTA) and then analyzed with SDS PAGE plus Coomassie Blue staining. […] Concentrations of the purified proteins were determined by using the calculated molar extinction coefficient for the A280.
(§2) ATP-PPi exchange assay. […] The charcoal/water suspension was added to a scintillation vial containing 5.0 ml of scintillation fluid, and the bound radioactivity was determined by liquid scintillation counting. […]
(§3) Since a purified recombinant A-domain of an NRPS module can selectively and efficiently activate the cognate amino acid substrate of the NRPS module in an ATP-PPi exchange assay (Konz, et al., 1999; Mootz & Marahiel, 1997), ATP-PPi exchange assays have been used to experimentally establish NRPS module specificities and novel NRPS codons. […] A-domain specificities were determined in ATP-PPi exchange and aa Km assays (see Methods and Materials), and the results are shown in FIG. 5. […]

In assay [2] the target is T1, Module 7 A-domain protein (Brevibacillus texasporus, UniProt Q2VQ15).
T1 sequence (Q2VQ15 3560-4063): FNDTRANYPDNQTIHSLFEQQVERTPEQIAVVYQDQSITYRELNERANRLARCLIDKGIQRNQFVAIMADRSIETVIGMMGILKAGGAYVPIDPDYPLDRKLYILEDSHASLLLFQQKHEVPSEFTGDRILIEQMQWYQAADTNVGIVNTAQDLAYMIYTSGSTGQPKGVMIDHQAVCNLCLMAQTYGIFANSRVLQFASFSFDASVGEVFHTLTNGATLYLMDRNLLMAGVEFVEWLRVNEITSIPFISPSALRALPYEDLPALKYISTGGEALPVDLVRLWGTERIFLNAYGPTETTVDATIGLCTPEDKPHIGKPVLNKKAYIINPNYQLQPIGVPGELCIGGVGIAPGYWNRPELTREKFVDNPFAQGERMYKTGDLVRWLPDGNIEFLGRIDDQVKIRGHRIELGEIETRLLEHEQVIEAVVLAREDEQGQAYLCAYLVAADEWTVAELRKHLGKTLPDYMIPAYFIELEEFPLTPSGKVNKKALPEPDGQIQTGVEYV
In words: ATP-PPi exchange assay, Module 7 A-domain. Format: biochemical. The method, then:
as §1, with “harvested.” for “harvested. Purification of the His10-tag recombinant proteins was achieved using the TALON metal affinity resins (BD Biosciences) under conditions recommended in the manual with modifications. Briefly, the E. coli cells were broken by sonication. Cell lysates were cleared by centrifugation at 25,000× g for one hour.”
as §2

The target of assay [3] is Module 5 A-domain protein (Brevibacillus texasporus, UniProt Q2VQ15). In words: ATP-PPi exchange assay, Module 5 A-domain. Format: biochemical. The following applies: 0.5 mM amino acid, 0.2 μM protein, 37° C., 15 min. The method, then: as §1, §2, §3
Sequence of Module 5 A-domain protein (Q2VQ15 entry or part of it): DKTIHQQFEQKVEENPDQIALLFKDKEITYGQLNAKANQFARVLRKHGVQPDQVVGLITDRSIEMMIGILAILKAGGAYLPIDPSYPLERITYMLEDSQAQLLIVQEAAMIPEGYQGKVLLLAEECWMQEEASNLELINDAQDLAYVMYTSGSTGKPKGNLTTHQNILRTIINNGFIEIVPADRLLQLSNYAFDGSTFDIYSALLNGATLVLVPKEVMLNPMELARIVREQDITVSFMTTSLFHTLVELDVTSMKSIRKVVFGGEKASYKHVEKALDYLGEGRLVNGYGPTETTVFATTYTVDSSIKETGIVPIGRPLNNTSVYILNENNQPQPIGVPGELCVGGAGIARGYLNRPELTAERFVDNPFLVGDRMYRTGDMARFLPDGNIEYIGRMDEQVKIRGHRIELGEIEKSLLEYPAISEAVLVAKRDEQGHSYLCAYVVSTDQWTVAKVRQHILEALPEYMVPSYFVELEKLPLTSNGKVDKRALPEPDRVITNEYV
Assay [4] deals with Module 4 A-domain protein (Brevibacillus texasporus, UniProt Q2VQ15). Description: ATP-PPi exchange assay, Module 4 A-domain. Format: biochemical. The settings on record: 0.5 mM amino acid, 0.2 μM protein, 37° C., 15 min. The procedure: as §1, §2, §3
Sequence of Module 4 A-domain protein (Q2VQ15 entry or part of it): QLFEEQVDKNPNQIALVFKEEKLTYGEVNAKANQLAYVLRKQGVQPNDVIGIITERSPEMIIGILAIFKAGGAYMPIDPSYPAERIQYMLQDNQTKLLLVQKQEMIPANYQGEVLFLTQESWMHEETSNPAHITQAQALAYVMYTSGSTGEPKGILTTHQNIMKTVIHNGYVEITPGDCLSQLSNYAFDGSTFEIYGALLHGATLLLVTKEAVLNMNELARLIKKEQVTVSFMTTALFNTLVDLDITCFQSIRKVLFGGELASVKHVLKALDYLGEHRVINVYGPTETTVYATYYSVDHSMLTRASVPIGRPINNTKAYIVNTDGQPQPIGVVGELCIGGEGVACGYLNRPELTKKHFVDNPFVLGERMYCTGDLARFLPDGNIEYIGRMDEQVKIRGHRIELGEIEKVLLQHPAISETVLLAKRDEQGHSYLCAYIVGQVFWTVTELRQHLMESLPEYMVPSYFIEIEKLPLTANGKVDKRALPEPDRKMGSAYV
Assay [5] relates to Module 2 A-domain protein. In words: ATP-PPi exchange assay, Module 2 A-domain. Format: biochemical, Brevibacillus texasporus. The following applies: 0.5 mM amino acid, 37° C., 15 min. The method, then:
Cloning, overexpression, and purification of His10-tagged BT A-domain proteins. DNA fragments encoding the A-domains of the BT NRPS Modules 8, 5, 7, 4 and 2 (Bt8A, Bt5A, Bt7A, Bt4A and Bt2A) were PCR-amplified and the PCR products were inserted into the His10-tag recombinant protein expression vector pET16b (Novagen). The A-domain borders were determined as defined by (Konz, et al., 1999). The expression constructs were transformed into the E.coli BL21 -AI strain (Invitrogen). Transformants were grown in L-broth at 37° C. to an A600 of 0.6 and then induced with 1 mM IPTG (isopropyl-β-D-thiogalactopyranoside) plus 0.2% L-arabinose. The cells were allowed to grow for two additional hours at 30° C. before being harvested. Purification of the His10-tag recombinant proteins was achieved using the TALON metal affinity resins (BD Biosciences) under conditions recommended in the manual with modifications. Briefly, the E. coli cells were broken by sonication. Cell lysates were cleared by centrifugation at 25,000× g for one hour. His-tagged recombinant proteins were then incubated with the TALON resin, washed, and eluted with 500 mM imidazole. Eluted proteins were dialyzed against a buffer (50 mM HEPES, pH 8.0, 100 mM sodium chloride, 10 mM magnesium chloride, and 1 mM EDTA) and then analyzed with SDS PAGE plus Coomassie Blue staining. […] Concentrations of the purified proteins were determined by using the calculated molar extinction coefficient for the A280.
ATP-PPi exchange assay. ATP-PPi exchange assays were performed to determine the substrate specificity of an A-domain. ATP-PPi exchanges were assayed as previously described (Stachelhaus, et al., 1998) with minor modifications. The assay mixture contained 50 mM HEPES (pH 8.0), 100 mM NaCl, 10 mM MgCl2, 2 mM ATP, 0.5 mM amino acid, 0.05 mM PPi, 0.15 μCi tetrasodium [^32P]pyrophosphate. Exchange was initiated by addition of purified recombinant A-domain proteins to a total volume of 0.1 ml. The protein concentrations were 0.2 μM for Module 4 and Module 5 A-domains while 2 μM for Module 7 and Module 8 A-domains. After incubation at 37° C. for 15 min, the reaction was stopped by addition of 0.5 ml of Termination Mix (100 mM tetrasodium pyrophosphate, 3.5% HClO4, and 1.6% [w/v] activated charcoal). The charcoal was pelleted by centrifugation, washed first with 40 mM pyrophosphate plus 1.4% perchloric acid and then with water, and was re-suspended in 0.5 ml of water. The charcoal/water suspension was added to a scintillation vial containing 5.0 ml of scintillation fluid, and the bound radioactivity was determined by liquid scintillation counting. The apparent Km values were determined with substrate concentrations ranging from 0.1 to 10 mM.
Since a purified recombinant A-domain of an NRPS module can selectively and efficiently activate the cognate amino acid substrate of the NRPS module in an ATP-PPi exchange assay (Konz, et al., 1999; Mootz & Marahiel, 1997), ATP-PPi exchange assays have been used to experimentally establish NRPS module specificities and novel NRPS codons. Recombinant A-domains of Modules 8, 5, 7 ,4 and 2 of the BT NRPS were produced and purified as described in Methods and Materials. Almost completely soluble recombinant A-domain proteins were obtained. A-domain specificities were determined in ATP-PPi exchange and aa Km assays (see Methods and Materials), and the results are shown in FIG. 5. […]

Assay [6] relates to straight run broilers. In words: Growth promoting Studies 3-1 and 3-2, pelleted starter feed, batteries. Format: in vivo, chicken. The settings on record: BT1583 12 ppm, BMD 50 ppm, COB 90 ppm, alone or combined. The source says: Eight (8) study repetitions per treatment were used, again with 4 birds per pen.

Sequence of Module 8 A-domain protein (Q2VQ14 entry or part of it): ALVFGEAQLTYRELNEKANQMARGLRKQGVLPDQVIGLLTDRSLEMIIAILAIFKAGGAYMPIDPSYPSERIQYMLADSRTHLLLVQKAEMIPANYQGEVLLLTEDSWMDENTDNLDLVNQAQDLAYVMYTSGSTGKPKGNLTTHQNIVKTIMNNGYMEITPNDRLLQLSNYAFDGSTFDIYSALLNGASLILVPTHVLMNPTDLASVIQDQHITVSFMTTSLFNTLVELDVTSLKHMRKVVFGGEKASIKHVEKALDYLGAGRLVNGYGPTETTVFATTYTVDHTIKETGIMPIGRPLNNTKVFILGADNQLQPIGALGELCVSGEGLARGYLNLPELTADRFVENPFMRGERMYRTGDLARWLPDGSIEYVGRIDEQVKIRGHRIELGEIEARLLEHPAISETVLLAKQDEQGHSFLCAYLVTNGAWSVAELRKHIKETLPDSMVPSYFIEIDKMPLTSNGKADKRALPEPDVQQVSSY

On to `NCCCC[C@H](N)C(=O)O` [L-Lys], for which the “relative substrate activation (highest activity defined as 100%)” value in assay [1] turned out to be 10%. Further, the substrate activation entry in assay [2] (0.5 mM amino acid, 2 μM protein, 20 proteinogenic amino acids and L-Orn tested) was “only amino acid that activated”. Also, the Km in assay [2] (substrate 0.1 to 10 mM, read-out: apparent Km) worked out at 1120 µM.

Take `CC(C)C[C@H](N)C(=O)O` [L-Leu]: the entries for the “relative substrate activation (highest activity defined as 100%)” value in assay [3], in assay [4] and in assay [5] were 17%, 7% and 98%, respectively.

For `N[C@@H](Cc1ccccc1)C(=O)O` [L-Phe], the “relative substrate activation (highest activity defined as 100%)” value in assay [5] came out at 3.5%.

As for Bacitracin MD [BMD, reference compound], the “20-day cumulative weight gain, Mean” value in assay [6] (Table 18) was 832.9688. Further, in assay [6] (Table 20), the “21-day cumulative weight gain, estimated marginal Mean” value is listed as 832.969. In assay [6] (Table 21), the “21-day cumulative weight gain, Duncan homogeneous subsets” value amounted to 832.9688. Moreover, in assay [6] (Table 25), the “20-day cumulative feed conversion rate, Duncan homogeneous subsets” value amounted to 1.3397.

Turning to `CSCC[C@H](N)C(=O)O` [L-Met], in assay [5], the “relative substrate activation (highest activity defined as 100%)” value is 100%.
